Assay results: patent US20260022142A1, “MACROCYCLIC IMMUNOMODULATORS” (Bristol-Myers Squibb Company, priority 2022, published 2026)
Bridge positions count the residues as written; N and C are the ends. Square brackets hold non-standard residues; d marks the D form. Peptide text beside a SMILES is read from it. * marks the point of attachment. ξ: configuration not given here. Phe(4-COOH) = N[C@@H](Cc1ccc(C(=O)O)cc1)C(=O)O; Bip = N[C@@H](Cc1ccc(-c2ccccc2)cc1)C(=O)O; Nle(6-COOH) = N[C@@H](CCCCC(=O)O)C(=O)O; Phe(3-Me) = Cc1cccc(C[C@H](N)C(=O)O)c1; Cha = N[C@@H](CC1CCCCC1)C(=O)O; Cit = NC(=O)NCCC[C@H](N)C(=O)O; Thr(3ξ) = CC(O)[C@H](N)C(=O)O; Carboxymethyl = O=C(O)C*; Orn = NCCC[C@H](N)C(=O)O; Aun = NCCCCCCCCCCC(=O)O; Dab = NCC[C@H](N)C(=O)O

Target: T1, PD-1/PD-L1 interaction (PE-labeled human PD-L1-Ig binding to Jurkat cell line over-expressing human PD-1) (Homo sapiens, UniProt Q15116)
T1 construct: expressed in transfected cells; host or cells: Jurkat
Assay: Jurkat-PD-1 Cell Binding High-Content Screening Assay (CBA)
Assay type: cell-based
Settings: Jurkat cell line over-expressing human PD-1; PE-labeled PD-L1-Ig 20 nM final; read-out: Jurkat hPD1-PDL1 IC50
Method in brief: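 Binding of fluorescent PD-L1-Ig (20 nM final) to Jurkat-PD-1 cells was measured by automated imaging after 1 h, following a 2 h compound pre-treatment at 37° C.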

T1 sequence (Q15116 25-288): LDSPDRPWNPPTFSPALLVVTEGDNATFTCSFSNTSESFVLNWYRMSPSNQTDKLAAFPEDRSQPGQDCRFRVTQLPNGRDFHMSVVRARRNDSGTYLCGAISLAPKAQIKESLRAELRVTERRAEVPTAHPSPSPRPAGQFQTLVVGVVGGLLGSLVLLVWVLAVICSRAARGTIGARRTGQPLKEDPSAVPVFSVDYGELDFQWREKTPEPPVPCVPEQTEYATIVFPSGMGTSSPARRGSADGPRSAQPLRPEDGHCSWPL

Row | SMILES | IC50
1 | Cc1cccc(C[C@@H]2NC(=O)[C@H](CC(=O)O)NC(=O)[C@H](Cc3ccc(OCC(=O)O)cc3)NC(=O)[C@H](CC(N)=O)NC(=O)CSC[C@@H](C(=O)N[C@@H](CCN)C(=O)NCCCCCCCCCCC(=O)O)NC(=O)[C@H](CCCNC(N)=O)NC(=O)[C@H](C(C)C)NC(=O)[C@H](CC3CCCCC3)NC(=O)[C@H](CCN)NC(=O)[C@@H](CC(C)C)NC(=O)[C@H](CCCN)NC(=O)[C@H](Cc3ccc(O)cc3)NC(=O)[C@H](Cc3ccc(-c4ccccc4)cc3)NC(=O)[C@H](C(C)C)NC2=O)c1 [Compound 3378] ({CH2CO}-NY(Carboxymethyl)D[Phe(3-Me)]V[Bip]Y[Orn][dL][Dab][Cha]V[Cit]C[Dab][Aun]-OH; thioether N-14) | 18.1 nM
2 | Cc1cccc(C[C@@H]2NC(=O)[C@H](CC(=O)O)NC(=O)[C@H](Cc3ccc(OCC(=O)O)cc3)NC(=O)[C@H](CC(N)=O)NC(=O)CSC[C@@H](C(=O)N[C@@H](CCN)C(=O)NCCCCCCCCCCC(=O)O)NC(=O)[C@H](CCC(=O)O)NC(=O)[C@H](C(C)C)NC(=O)[C@H](CC3CCCCC3)NC(=O)[C@H](CCN)NC(=O)[C@@H](CC(C)C)NC(=O)[C@H](CCCN)NC(=O)[C@H](Cc3ccc(O)cc3)NC(=O)[C@H](Cc3ccc(-c4ccccc4)cc3)NC(=O)[C@H](C(C)C)NC2=O)c1 [Compound 3379] ({CH2CO}-NY(Carboxymethyl)D[Phe(3-Me)]V[Bip]Y[Orn][dL][Dab][Cha]VEC[Dab][Aun]-OH; thioether N-14) | 9.5 nM
3 | Cc1cccc(C[C@@H]2NC(=O)[C@H](CC(=O)O)NC(=O)[C@H](Cc3ccc(OCC(=O)O)cc3)NC(=O)[C@H](CCCNC(=N)N)NC(=O)CSC[C@@H](C(=O)N[C@@H](CCN)C(=O)NCCCCCCCCCCC(=O)O)NC(=O)[C@H](CCC(N)=O)NC(=O)[C@H](C(C)C)NC(=O)[C@H](CC3CCCCC3)NC(=O)[C@H](CCN)NC(=O)[C@@H](CC(C)C)NC(=O)[C@H](CCCN)NC(=O)[C@H](Cc3ccc(O)cc3)NC(=O)[C@H](Cc3ccc(-c4ccccc4)cc3)NC(=O)[C@H](CC(C)C)NC2=O)c1 [Compound 3380] ({CH2CO}-RY(Carboxymethyl)D[Phe(3-Me)]L[Bip]Y[Orn][dL][Dab][Cha]VQC[Dab][Aun]-OH; thioether N-14) | 20.6 nM
4 | Cc1cccc(C[C@@H]2NC(=O)[C@H](CC(=O)O)NC(=O)[C@H](Cc3ccc(OCC(=O)O)cc3)NC(=O)[C@H](CCCNC(=N)N)NC(=O)CSC[C@@H](C(=O)N[C@@H](CCN)C(=O)NCCCCCCCCCCC(=O)O)NC(=O)[C@H](CCC(=O)O)NC(=O)[C@H](C(C)C)NC(=O)[C@H](CC3CCCCC3)NC(=O)[C@H](CCN)NC(=O)[C@@H](CC(C)C)NC(=O)[C@H](CCCN)NC(=O)[C@H](Cc3ccc(O)cc3)NC(=O)[C@H](Cc3ccc(-c4ccccc4)cc3)NC(=O)[C@H](Cc3ccc(O)cc3)NC2=O)c1 [Compound 3381] ({CH2CO}-RY(Carboxymethyl)D[Phe(3-Me)]Y[Bip]Y[Orn][dL][Dab][Cha]VEC[Dab][Aun]-OH; thioether N-14) | 8.9 nM
5 | Cc1cccc(C[C@@H]2NC(=O)[C@H](CC(=O)O)NC(=O)[C@H](Cc3ccc(OCC(=O)O)cc3)NC(=O)[C@H](CCCNC(=N)N)NC(=O)CSC[C@@H](C(=O)N[C@@H](CCN)C(=O)NCCCCCCCCCCC(=O)O)NC(=O)[C@H](CCC(N)=O)NC(=O)[C@H](C(C)C)NC(=O)[C@H](CC3CCCCC3)NC(=O)[C@H](CCN)NC(=O)[C@@H](CC(C)C)NC(=O)[C@H](CCCN)NC(=O)[C@H](Cc3ccc(O)cc3)NC(=O)[C@H](Cc3ccc(-c4ccccc4)cc3)NC(=O)[C@H](Cc3ccc(O)cc3)NC2=O)c1 [Compound 3382] ({CH2CO}-RY(Carboxymethyl)D[Phe(3-Me)]Y[Bip]Y[Orn][dL][Dab][Cha]VQC[Dab][Aun]-OH; thioether N-14) | 10.8 nM
6 | Cc1cccc(C[C@@H]2NC(=O)[C@H](CC(=O)O)NC(=O)[C@H](Cc3ccc(OCC(=O)O)cc3)NC(=O)[C@H](CCCNC(=N)N)NC(=O)CSC[C@@H](C(=O)N[C@@H](CCN)C(=O)NCCCCCCCCCCC(=O)O)NC(=O)[C@H](CCCNC(N)=O)NC(=O)[C@H](C(C)C)NC(=O)[C@H](CC3CCCCC3)NC(=O)[C@H](CCN)NC(=O)[C@@H](CC(C)C)NC(=O)[C@H](CCCN)NC(=O)[C@H](Cc3ccc(OCC(=O)O)cc3)NC(=O)[C@H](Cc3ccc(-c4ccccc4)cc3)NC(=O)[C@H](C(C)C)NC2=O)c1 [Compound 3383] ({CH2CO}-RY(Carboxymethyl)D[Phe(3-Me)]V[Bip]Y(Carboxymethyl)[Orn][dL][Dab][Cha]V[Cit]C[Dab][Aun]-OH; thioether N-14) | 8.2 nM
7 | Cc1cccc(C[C@@H]2NC(=O)[C@H](CC(=O)O)NC(=O)[C@H](Cc3ccc(OCC(=O)O)cc3)NC(=O)[C@H](CCCNC(=N)N)NC(=O)CSC[C@@H](C(=O)N[C@@H](CCN)C(=O)NCCCCCCCCCCC(=O)O)NC(=O)[C@H](CCC(=O)O)NC(=O)[C@H](C(C)C)NC(=O)[C@H](CC3CCCCC3)NC(=O)[C@H](CCN)NC(=O)[C@@H](CC(C)C)NC(=O)[C@H](CCCN)NC(=O)[C@H](CCC(N)=O)NC(=O)[C@H](Cc3ccc(-c4ccccc4)cc3)NC(=O)[C@H](C(C)C)NC2=O)c1 [Compound 3384] ({CH2CO}-RY(Carboxymethyl)D[Phe(3-Me)]V[Bip]Q[Orn][dL][Dab][Cha]VEC[Dab][Aun]-OH; thioether N-14) | 9.2 nM
8 | CSCC[C@@H]1NC(=O)[C@H](Cc2ccc(-c3ccccc3)cc2)NC(=O)[C@H](C(C)C)NC(=O)[C@H](Cc2cccc(C)c2)NC(=O)[C@H](CC(=O)O)NC(=O)[C@H](Cc2ccc(OCC(=O)O)cc2)NC(=O)[C@H](CCCNC(=N)N)NC(=O)CSC[C@@H](C(=O)N[C@@H](CCN)C(=O)NCCCCCCCCCCC(=O)O)NC(=O)[C@H](CCC(N)=O)NC(=O)[C@H](C(C)C)NC(=O)[C@H](CC2CCCCC2)NC(=O)[C@H](CCN)NC(=O)[C@@H](CC(C)C)NC(=O)[C@H](CCCN)NC1=O [Compound 3385] ({CH2CO}-RY(Carboxymethyl)D[Phe(3-Me)]V[Bip]M[Orn][dL][Dab][Cha]VQC[Dab][Aun]-OH; thioether N-14) | 16.5 nM
9 | CC(=O)NCCCC[C@@H]1NC(=O)[C@H](Cc2ccc(-c3ccccc3)cc2)NC(=O)[C@H](Cc2ccc(O)cc2)NC(=O)[C@H](Cc2cccc(C)c2)NC(=O)[C@H](CC(=O)O)NC(=O)[C@H](Cc2ccc(OCC(=O)O)cc2)NC(=O)[C@H](CCCNC(=N)N)NC(=O)CSC[C@@H](C(=O)N[C@@H](CCN)C(=O)NCCCCCCCCCCC(=O)O)NC(=O)[C@H](CCCNC(N)=O)NC(=O)[C@H](C(C)C)NC(=O)[C@H](CC2CCCCC2)NC(=O)[C@H](CCN)NC(=O)[C@@H](CC(C)C)NC(=O)[C@H](CCCN)NC1=O [Compound 3386] ({CH2CO}-RY(Carboxymethyl)D[Phe(3-Me)]Y[Bip]K(Ac)[Orn][dL][Dab][Cha]V[Cit]C[Dab][Aun]-OH; thioether N-14) | 4.4 nM
10 | Cc1cccc(C[C@@H]2NC(=O)[C@H](CC(=O)O)NC(=O)[C@H](Cc3ccc(OCC(=O)O)cc3)NC(=O)[C@H](CCCNC(=N)N)NC(=O)CSC[C@@H](C(=O)N[C@@H](CCN)C(=O)NCCCCCCCCCCC(=O)O)NC(=O)[C@H](C(C)O)NC(=O)[C@H](C(C)C)NC(=O)[C@H](CC3CCCCC3)NC(=O)[C@H](CCN)NC(=O)[C@@H](CC(C)C)NC(=O)[C@H](CCCN)NC(=O)[C@H](Cc3ccc(OCC(=O)O)cc3)NC(=O)[C@H](Cc3ccc(-c4ccccc4)cc3)NC(=O)[C@H](CC(C)C)NC2=O)c1 (stereo partly drawn) [Compound 3387] ({CH2CO}-RY(Carboxymethyl)D[Phe(3-Me)]L[Bip]Y(Carboxymethyl)[Orn][dL][Dab][Cha]V[Thr(3ξ)]C[Dab][Aun]-OH; thioether N-14) | 20.5 nM
11 | Cc1cccc(C[C@@H]2NC(=O)[C@H](CC(=O)O)NC(=O)[C@H](Cc3ccc(OCC(=O)O)cc3)NC(=O)[C@H](CCCNC(=N)N)NC(=O)CSC[C@@H](C(=O)N[C@@H](CCN)C(=O)NCCCCCCCCCCC(=O)O)NC(=O)[C@H](CCCNC(N)=O)NC(=O)[C@H](C(C)C)NC(=O)[C@H](CC3CCCCC3)NC(=O)[C@H](CCN)NC(=O)[C@@H](CC(C)C)NC(=O)[C@H](CCCN)NC(=O)[C@H](CCCCC(=O)O)NC(=O)[C@H](Cc3ccc(-c4ccccc4)cc3)NC(=O)[C@H](C(C)C)NC2=O)c1 [Compound 3390] ({CH2CO}-RY(Carboxymethyl)D[Phe(3-Me)]V[Bip][Nle(6-COOH)][Orn][dL][Dab][Cha]V[Cit]C[Dab][Aun]-OH; thioether N-14) | 9 nM
12 | CC(=O)NCCCC[C@@H]1NC(=O)[C@H](C(C)C)NC(=O)[C@H](CC2CCCCC2)NC(=O)[C@H](CCN)NC(=O)[C@@H](CC(C)C)NC(=O)[C@H](CCCN)NC(=O)[C@H](Cc2ccc(O)cc2)NC(=O)[C@H](Cc2ccc(-c3ccccc3)cc2)NC(=O)[C@H](C(C)C)NC(=O)[C@H](Cc2c[nH]c3ccccc23)NC(=O)[C@H](CC(=O)O)NC(=O)[C@H](Cc2ccc(OCC(=O)O)cc2)NC(=O)[C@H](CCCNC(=N)N)NC(=O)CSC[C@@H](C(=O)N[C@@H](CCN)C(=O)NCCCCCCCCCCC(=O)O)NC1=O [Compound 3391] ({CH2CO}-RY(Carboxymethyl)DWV[Bip]Y[Orn][dL][Dab][Cha]VK(Ac)C[Dab][Aun]-OH; thioether N-14) | 8.8 nM
13 | CC(C)C[C@H]1NC(=O)[C@H](CCCN)NC(=O)[C@H](Cc2ccc(O)cc2)NC(=O)[C@H](Cc2ccc(-c3ccccc3)cc2)NC(=O)[C@H](C(C)C)NC(=O)[C@H](Cc2c[nH]c3ccccc23)NC(=O)[C@H](CC(=O)O)NC(=O)[C@H](Cc2ccc(C(=O)O)cc2)NC(=O)[C@H](CC(N)=O)NC(=O)CSC[C@@H](C(=O)N[C@@H](CCN)C(=O)NCCCCCCCCCCC(=O)O)NC(=O)[C@H](CCC(=O)O)NC(=O)[C@H](C(C)C)NC(=O)[C@H](CC2CCCCC2)NC(=O)[C@H](CCN)NC1=O [Compound 3392] ({CH2CO}-N[Phe(4-COOH)]DWV[Bip]Y[Orn][dL][Dab][Cha]VEC[Dab][Aun]-OH; thioether N-14) | 13.3 nM
